Source: publication PMC9515143, “Phosphorylation of Jhd2 by the Ras-cAMP-PKA(Tpk2) pathway regulates histone modifications and autophagy” (Nature Communications, 2022)

Key:
[1] = system: H3K4me3; test: Western blot of H3K4 methylation in mutants; format: cell-based, budding yeast (Saccharomyces cerevisiae)
Procedure: (§1) Cells were grown in 5 ml YPD or selective medium until OD600 of 0.7–1.0. Cells were harvested and lysed in alkaline lysis buffer (2 M NaOH, 8% 2-mercaptoethanol). After centrifugation, the protein pellet was resuspended in 150 μl 2×SDS-sample buffer. Protein samples were separated by 8–15% SDS-PAGE and transferred to PVDF membrane. The blots were probed with primary antibodies followed by incubation with horseradish peroxidase-labelled IgG secondary antibodies. The protein bands were visualized using the ECL Chemiluminescence Detection Kit (Bio-Rad, 170–5061) and quantified with Image J software (v.1.8.0).

[2] = system: H3K79me3; test: ChIP-qPCR of H3K79me3/H3 (rebuttal); format: cell-based, budding yeast (Saccharomyces cerevisiae); settings: 0.05% versus 2% glucose
[3] = system: COMPASS (Spp1-CBP); test: In vitro histone methyltransferase (HMT) assay with purified COMPASS; format: biochemical, budding yeast (Saccharomyces cerevisiae); settings: COMPASS (Spp1-CBP) purified from cells grown in 0.05% glucose
Procedure: The HMT reactions were carried out using purified COMPASS (Spp1-CBP) and 15 μg recombinant H3 in 50 μl reaction buffer (50 mM Tris pH 8.5, 20 mM KCl, 10 mM MgCl2, 10 mM 2-mercaptoethanol, 100 μM SAM, 250 mM sucrose, protease inhibitor cocktail) at 30 °C for 0–2 hr. Reactions were quenched by adding 5 × SDS loading buffer and boiled at 95°C for 5 min. Protein was separated on a 10–20% SDS-PAGE gel followed by Western blots with the antibodies indicated.
Supplementary Fi g . […] WT (a) and H2B-F LA G cel ls (b) wer e grown in YPD medium until OD600 of 0.7.
Cells were th en tr eat ed with YP medium supplement ed with differen t concentrations of glucos e for 0.5 hr. C ells were h ar vested an d the ex tract ed histones w er e anal yz ed by Western blots with indicat ed ant ibodies. To d et ect H2B monoubiquitination, H2B-F LAG strain w as used and d et ect ed with anti -F LAG ant ibody. Th e upper bands ar e monoubiquitinat ed H2B-F LAG. c E ff e c t of gl ucose on histone modifications in WT and ubp8∆ ubp10∆ mutant. WT and ubp8∆ ubp10∆ mut ant w er e gro wn in YPD medium unti l OD600 of 0.7. Cells wer e th en treated with YP medium supplem ent ed with di fferent con cen tr ations of gl u cos e fo r 0.5 hr. d Gluco se has no effect on the activit y of C O M PA S S . Spp1-TA P cells wer e grown in YPD medium until OD600 of 1.5. Cells were h arv est ed and then […]

[4] = system: Jhd2 phosphorylation; test: Jhd2 phosphorylation in cells at different glucose concentrations; format: cell-based, budding yeast (Saccharomyces cerevisiae); settings: 0.05%, 0.5%, 2% glucose, WT, Jhd2-S321A, S340A and tpk2Δ
Procedure: (§2) To examine the effect of glucose on histone modifications, yeast cells were grown in 2% glucose-containing YPD (Yeast Extract Peptone Dextrose) medium until OD600 of 0.7–1.0. Cells were then collected, washed and resuspended in YP medium for 3 hr followed by treatment with different concentrations of glucose for 0.5 hr. For 1NM-PP1 (MCE, HY-13804) treatment, cells were grown in 2% YPD until OD600 of 0.7–1.0. Cells were then treated with 25 μM 1NM-PP1 for 0.5 hr. For FBP and pyruvate treatment, cells were pre-treated with Zymolase (Mpbio, 08320921) to increase the permeability. In brief, cells were grown in YPD medium until OD600 of 0.7–1.0, centrifuged and resuspended in 1 ml SB buffer (100 mM Sorbitol, 20 mM Tris pH 7.4). 10 μl Zymolase was then added and incubated at 30 °C for 15 min. The spheroplasts were washed and cultured in YPD medium containing different concentrations of FBP and pyruvate for 3 hr.
as §1, with “The blots were probed with primary antibodies followed by incubation with horseradish peroxidase-labelled IgG secondary antibodies.” left out

[5] = system: H3K14ac; test: Western blot of H3K14ac (glucose, mutants); format: cell-based, budding yeast (Saccharomyces cerevisiae)
Procedure: as §2
as §1, with “The blots were probed with primary antibodies followed by incubation with horseradish peroxidase-labelled IgG secondary antibodies.” left out

[6] = system: Jhd2; test: In vitro demethylase assay, Jhd2 purified from cells grown in increasing glucose; format: biochemical, budding yeast (Saccharomyces cerevisiae); settings: Jhd2 from cells grown in 0.05%, 0.5%
Procedure: We also purified unphosphorylated Jhd2 from tpk2Δ mutant (Jhd2 tpk2Δ) and performed in vitro demethylase assay. […] We also treated WT Jhd2 with λ phosphatase to remove its phosphorylation and then used this dephosphorylated Jhd2 for in vitro demethylase assay. […] Furthermore, we purified Jhd2 from cells grown in increasing glucose concentrations (0.05%, 0.5%, 2%) and performed in vitro demethylase assay.
The reaction was quenched by adding 2×SDS-PAGE loading buffer and incubated at 95 °C for 10 min. Samples were spotted to PVDF membrane followed by dot blots with indicated antibodies.

[7] = system: PKA subunits; test: Expression of PKA subunits (Tpk1, Tpk2, Tpk3, Bcy1) after glucose, Western blot; format: cell-based, budding yeast (Saccharomyces cerevisiae); settings: for Tpk2/GAPDH / Tpk3/GAPDH: normalized to Tpk1/GAPDH at same glucose; for Bcy1/GAPDH: normalized to Bcy1/GAPDH at 0.05% glucose
Procedure: as §1
Supplementary Fi g . 11 Analysis of PKA subunits subcellular localization, expression and Bcy1 dissociation kinetics. […]
For Supplem ent ar y Fi g. 11 b, dat a r ep res ent m ean s ± SEM; n=3 independent ex perim ents. Tw o -sid ed t-t ests were us ed for statistical

SMILES: OC[C@H]1OC(O)[C@H](O)[C@@H](O)[C@@H]1O (stereo partly drawn) [glucose]
- H3K4me3 level in chd1Δ mutant ([1]; chd1Δ, different glucose concentrations, 0.5 hr, Western blot (rebuttal)): glucose-induced
- H3K4me3 level, WT versus tpk2Δ ([1]; increasing glucose concentrations, Western blot): induced H3K4me3 in WT but not tpk2Δ mutant
- H3K79me3 occupancy at PAU8, DRS2 and ATG5 [2]: glucose significantly increased H3K79me3 at H2Bub-dependent genes (PAU8, DRS2)
- HMT activity of COMPASS [3]: did not affect the HMT activity of COMPASS
- Jhd2 phosphorylation in response to glucose [4]: Jhd2 phosphorylation was elevated when the concentration of glucose was increased from 0.05 to 2% in WT but not in Jhd2-S321A, S340A and tpk2Δ mutants
- H3K14ac level ([5]; WT cells, glucose 0.5 hr): induced H3K14ac
- H3K14ac level, WT versus Jhd2-S321A, S340A and tpk2Δ ([5]; glucose): increased in response to glucose in WT but not in Jhd2-S321A, S340A and tpk2Δ mutants
- phosphorylation level and demethylase activity of Jhd2 purified from cells in 2% glucose versus 0.05% glucose [6]: higher phosphorylation level but lower demethylase activity
- Tpk2/GAPDH ([7]; 0.05% glucose, replicate 1): 1.627
- Tpk3/GAPDH ([7]; 0.05% glucose, replicate 1): 0.4263
- Tpk2/GAPDH ([7]; 0.05% glucose, replicate 2): 1.616
- Tpk3/GAPDH ([7]; 0.05% glucose, replicate 2): 0.1439
- Tpk2/GAPDH ([7]; 0.05% glucose, replicate 3): 1.728
- Tpk3/GAPDH ([7]; 0.05% glucose, replicate 3): 0.2447
- expression of PKA subunits ([7]; 0.05%, 0.5%, 2% glucose, Western blot): not significantly altered by glucose
- Bcy1/GAPDH ([7]; 0.5% glucose, replicate 1): 0.8311
- Bcy1/GAPDH ([7]; 0.5% glucose, replicate 2): 0.7213
- Bcy1/GAPDH ([7]; 0.5% glucose, replicate 3): 1.191
- Tpk2/GAPDH ([7]; 0.5% glucose, replicate 1): 1.363
- Tpk3/GAPDH ([7]; 0.5% glucose, replicate 1): 0.4332
- Tpk2/GAPDH ([7]; 0.5% glucose, replicate 2): 1.712
- Tpk3/GAPDH ([7]; 0.5% glucose, replicate 2): 0.3492
- Tpk2/GAPDH ([7]; 0.5% glucose, replicate 3): 1.416
- Tpk3/GAPDH ([7]; 0.5% glucose, replicate 3): 0.1641
- Bcy1/GAPDH ([7]; 2% glucose, replicate 1): 1.059
- Bcy1/GAPDH ([7]; 2% glucose, replicate 2): 0.8633
- Bcy1/GAPDH ([7]; 2% glucose, replicate 3): 0.977
- Tpk2/GAPDH ([7]; 2% glucose, replicate 1): 1.492
- Tpk3/GAPDH ([7]; 2% glucose, replicate 1): 0.565
- Tpk2/GAPDH ([7]; 2% glucose, replicate 2): 1.634
- Tpk3/GAPDH ([7]; 2% glucose, replicate 2): 0.1809
- Tpk2/GAPDH ([7]; 2% glucose, replicate 3): 1.419
- Tpk3/GAPDH ([7]; 2% glucose, replicate 3): 0.2075
